Values quoted from earlier work, collected in patent publication US7524881B2, “Production of Δ 9 tetrahydrocannabinol” (Resolution Chemicals Limited, priority 2002, dated 2009).

Details: for psychomimetic activity: qualitative background statement

| SMILES | psychomimetic activity | psychomimetic activity relative to Δ8-THC (compared with Δ8-THC) [times] |
| --- | --- | --- |
| C=C(C)[C@@H]1CCC(C)=C[C@H]1c1c(O)cc(CCCCC)cc1O [Cannabidiol (CBD), cannabidiol] | little activity |  |
| CCCCCc1cc2c(c(O)c1C(=O)O)[C@@H]1C=C(C)CC[C@H]1C(C)(C)O2 [THCA-A, Δ9-THC carboxylic acid] | psychomimetically inactive |  |
| CCCCCc1cc2c(c(O)c1C(=O)O)[C@@H]1C=C(C)CC[C@H]1C(C)(C)O2 [THCA-B, Δ9-THC carboxylic acid] | psychomimetically inactive |  |
| CCCCCc1cc(O)c2c(c1)OC(C)(C)[C@@H]1CCC(C)=C[C@@H]21 [Δ9-THC, Delta 9 tetrahydrocannabinol] |  | 20 |
